These are literature values, as cited in US6656448B1, “Matrix metalloproteinase inhibitors” (Bristol-Myers Squibb Pharma Company, priority 2000, dated 2003).

The test system of this data set is MMP-2 and MMP-9.

On to `O=C(NO)C1(CS(=O)(=O)c2ccc(Oc3ccc(Cl)cc3)cc2)CCOCC1` [Example 13], for which the “selectivity for MMP-2 and MMP-9” value is “selectivity for MMP-2 and MMP-9”.
